The record followed here is patent US8017747B2, “Apoptosis-inducing genes for treating cancer” (Nationwide Children's Hospital, Inc., priority 2004, dated 2011).

Each structure is given as a SMILES string. Structures can show the parent of a compound that is named as a salt. Where two headings read alike, the source gives them in different places.

In data set [1] the test system is SKOV-3 intraperitoneal ovarian tumors. The following applies: 26 days; for Tumor Size / Tumor Weight: mean.
For another data set, the system named is 697Bcl2 cells. The experiment in a line: 697Bcl2 cell growth, trypan blue exclusion. Format: cell-based. The settings on record: 72 hours. The source says: (§1) To determine cell viability, cells were subjected to trypan blue exclusion assays. Briefly, cells were washed with PBS, and diluted 1:1 in a solution of 0.4% trypan blue. Viable cells were counted and total viable cell number was used for growth curves. Late apoptotic/necrotic cells were also identified by staining with 0.4% trypan blue. The number of apoptotic/necrotic cells were counted and expressed as a percentage of the total number of cells.
(§2) The foregoing descriptions provide many working examples organized under a single example as an aid to the reader. Further, these descriptions emphasized the results obtained with Jurkat cells.

The test system of data set [2] is Jurkat cells. The experiment in a line: Jurkat cell growth/viability and late apoptosis, trypan blue exclusion. Format: cell-based. How it is done: Acute T-cell leukemia cells, Jurkat, were grown in RPMI-1640 (Mediatech) supplemented with 10% FBS and grown at 37° C. in 95% air, 5% CO2. For growth analysis, cells were seeded at a density of 2×10^5 cells and for all other experiments a density of 5×10^5 was used. Transfections were performed using effectene transfection reagent, at a ratio of 1 μg DNA:25 μl effectene.
as §1
Proliferating Jurkat cells were seeded at a density of 2×10^5 cells and transfected with control plasmid, SAGA, or treated with 2 μM VCR. Viable cells were assayed by trypan blue exclusion at 0, 12, 24, 48 and 72 hours post-transfection/treatment. […]
Late apoptosis was quantified as the percentage of dead cells versus total cells. […]
In addition to the single treatment effects of SAGA expression on transfected cells, the combined effects of treatment with SAGA plus VCR were also evaluated in vitro using Jurkat cells. […]

Data set [3] deals with Jurkat cells. Briefly: Phase contrast microscopy of Jurkat cells (morphological changes). The class given is cell-based. The following applies: 12 hours. How it is done: SAGA transfected, VCR treated, and control cells were visualized microscopically at 0, 12, 48 and 72 hours post transfection/treatment. At 0 hours, the cells in all groups appeared healthy. At 12 hours, there was approximately 5% apoptosis seen in both SAGA- and VCR-treated cell populations. At 48 and 72 hours, more than 50% of apoptotic cells in SAGA- and VCR-treated cell populations were visualized, with a very high degree of morphologically abnormal cells in the population of cells transfected with SAGA, including late necrotic and lysed cells, appearing as cellular debris.

A further data set deals with Jurkat cells (T-ALL). The experiment in a line: Annexin V/PI staining with FACS, T-ALL (Jurkat). The class given is cell-based. How it is done: (§3) To analyze early apoptotic events, cells from the different experimental conditions were subjected to staining with an Annexin V-FLUOS kit (Roche). FACS analysis was then performed.
Annexin-V/PI is a commonly used method to detect early apoptotic events in cells. We employed this strategy to assay early apoptosis in SAGA transfected cells at 12, 24 and 48 hours.
Apoptotic events were detected by Annexin V staining and by changes in mitochondrial potential, as early as 12 hours post-treatment. In addition to these events, DNA fragmentation was also observed and caspase-3 activation was evident in treated cells. Cytotoxicity was clearly visible by microscopic analysis 24 hours post-treatment (FIG. 3).

In another data set the test system is 697Bcl2 cells (B-ALL). The experiment in a line: Annexin V/PI staining with FACS, B-ALL (697Bcl2). Format: cell-based. How it is done:
as §3, §2

In data set [4] the test system is Jurkat cells. Briefly: DNA fragmentation by agarose gel, Jurkat. Format: cell-based. The following applies: 48 hours. How it is done: To analyze DNA fragmentation, cellular DNA was isolated by lysis of cells in Cell Lysis Buffer (50 mM Tris-HCl, pH 8.5, 20 mM EDTA, 1% NP-40 (IGEPAL CA-630)) for 30 minutes on ice, followed by a 1 hour incubation at 56° C. with 500 μg/ml RNase A (Roche) and an overnight incubation with 1 mg/ml proteinase K (Fisher) at 37° C. After allowing the solution to cool to room temperature, proteins were precipitated with Protein precipitation solution (Gentra Systems) and isopropanol was added to the supernatants containing DNA to precipitate that DNA. The resulting RNase-treated DNA was quantified by spectrophotometry and 5 μg of DNA were resolved in a 1.8% agarose gel at 80V for 2 hours. DNA was stained by ethidium bromide and visualized with a UV transilluminator. A 1 kB Plus DNA ladder (Fisher) was run alongside the samples.
DNA fragmentation is a common sign of late-stage apoptosis that is characterized by enzyme-mediated nicks and breaks in the DNA. […] The onset of DNA fragmentation occurred at 12 hours post-treatment for SAGA-treated cells. […] DNA from control cells remained intact throughout the experiment.

The subject of data set [5] is Jurkat cells. Briefly: Western blot of Jurkat lysates (Granzyme B, caspase-3, p21). The class given is cell-based. The settings on record: 48 hours. How it is done: Proteins were extracted from cells by boiling in 0.5% SDS. Quantification of the protein content of the cell lysates was determined using the Lowry method. A total of 15 μg of each cell lysate were analyzed through electrophoretic separation in 12% SDS-PAGE and transferred onto a nitrocellulose membrane using a semi-dry transfer apparatus, at 20V for 1 hour. The membrane was probed with rabbit anti-caspase-3 polyclonal antibody (1:1000, Santa Cruz Biotech), rabbit anti-granzyme B (1:1000, Abcam) or mouse anti-p21 (1:1000, Santa Cruz Biotech) and HRP-conjugated anti-rabbit or anti-mouse IgG (1:5000, Santa Cruz Biotech). Detection was achieved using the ECL or ECL Advanced kits (Amersham) and exposure to X-ray film for varying amounts of time. Protein standards were used for size determination.
Proliferating Jurkat cells were transfected with the survivin promoter-granzyme B construct disclosed herein and termed SAGA, for 24 or 48 hours. Protein extracts were generated from transfected cells and control transfected cells, and analyzed by SDS-PAGE.
After confirming expression of Granzyme B from SAGA, its apoptotic function was tested by assaying for caspase-3 activation. Proliferating Jurkat cells were transfected with SAGA for 24 or 48 hours, as previously described. Protein extracts were separated by SDS-PAGE.
The levels of p21 in control cells at both time points were negligible.
In general terms: Immunoblotting shows a protein as a band on a membrane.

Data set [6] has as its system Daoy cells. The experiment in a line: Daoy cell growth/viability, trypan blue exclusion. Format: cell-based. The settings on record: 24 hours, VCR 2 μM. How it is done: Medulloblastoma cell lines, i.e., Daoy cells (ATCC HTB-186), were grown in DMEM-(Mediatech) supplemented with 10% FBS and grown at 37° C. in 95% air, 5% CO2. For growth analysis, cells were seeded at a density of 1.5×10^5 cells. Transfections were performed using effectene transfection reagent, at a ratio of 1 μg DNA:10 μl effectene.
as §1
Proliferating Daoy cells were seeded at a density of 1.5×10^5 cells and transfected with control plasmid, SAGA, or treated with 2 μM VCR. Viable cells were assayed by trypan blue exclusion at 0, 24, 48 and 72 hours post-transfection/treatment. There was a 90% decrease in the viability of SAGA-transfected cells at 24 hours compared to 50% for VCR-treated cells. Control cells grew consistently, with a doubling time of approximately 48 hours.

Data set [7] has as its system Daoy cells. Briefly: Phase contrast microscopy of Daoy cells. The class given is cell-based. The settings on record: 48 and 72 hours. How it is done: Living cells in 12-well plates were observed by phase contrast microscopy using a Leica Inverted microscope at 10× magnification.
SAGA-transfected, VCR-treated, and control cells were visualized microscopically at 0, 24, 48 and 72 hours post transfection/treatment. At 0 hours, the cells in all groups appeared healthy.

`CC(=O)O[C@H]1C(=O)[C@@]2(C)[C@H]([C@H](OC(=O)c3ccccc3)[C@]3(O)C[C@H](OC(=O)[C@H](O)[C@@H](NC(=O)c4ccccc4)c4ccccc4)C(C)=C1C3(C)C)[C@]1(OC(C)=O)CO[C@@H]1C[C@@H]2O` [Paclitaxel, paclitaxel]: in [1], the “Disease Dissemination” value is 4 of 5, the “Number of Nodules” value is reported as 6.2 ± 3.9, the “Tumor Size” value is 10.4 ± 1.3 mm and the “Tumor Weight” value amounted to 236.0 ± 79.8 mg. In data set [1] (paclitaxel 15 mg/kg i.p. 2 injections, SAGA 0.5 mg/kg DNA i.p. twice weekly), the “Animals with Tumors at Completion of Therapy” value is listed as 5 of 5. Besides, in data set [1] (listed as paclitaxel), the “Tumor Size” value was determined as 10.4 mm and the “Tumor Weight” value was 236.0 mg.

Take `COc1cc([C@@H]2c3cc4c(cc3[C@@H](O[C@@H]3O[C@@H]5CO[C@@H](C)O[C@H]5[C@H](O)[C@H]3O)[C@H]3COC(=O)[C@H]23)OCO4)cc(OC)c1O` [Etoposide, etoposide]: the “living cells as % of the original inoculum” value in the data set with 697Bcl2 cells (vincristine normal serum concentration, etoposide 5 μM) amounted to 61.8%.

In turn, `CC[C@]1(O)C[C@H]2CN(CCc3c([nH]c4ccccc34)[C@@](C(=O)OC)(c3cc4c(cc3OC)N(C=O)[C@H]3[C@@](O)(C(=O)OC)[C@H](OC(C)=O)[C@]5(CC)C=CCN6CC[C@]43[C@@H]65)C2)C1` [Vincristine, Vincristine sulfate] gave an average viability in the data set with Jurkat cells [2] (48 hours after treatment) of 86%. The “final living cell count as % of the initial cell number at time 0” value in the data set with Jurkat cells [2] (72 hours post-transfection/treatment, VCR 2 μM) was 63%. The apoptosis seen microscopically with Jurkat cells [3] is “approximately 5%”. The “Early Apoptosis” value was determined as 46.5% in the data set with Jurkat cells (T-ALL) (24 hours), 49.4% in the data set with Jurkat cells (T-ALL) (48 hours), 1.78% in the data set with 697Bcl2 cells (B-ALL) (24 hours) and 5.09% in the data set with 697Bcl2 cells (B-ALL) (48 hours). Further, the Necrosis was 18% with Jurkat cells (T-ALL) (24 hours), 26% in the data set on Jurkat cells (T-ALL) (48 hours), 1.17% in the data set with 697Bcl2 cells (B-ALL) (24 hours) and 2.34% with 697Bcl2 cells (B-ALL) (48 hours). Also, the DNA fragmentation entry with Jurkat cells [4] is listed as “visible”. The p21 protein induction entry in the data set with Jurkat cells [5] is recorded as “much lower levels”. Further, the “living cells as % of the original inoculum” value in the data set on 697Bcl2 cells (high dose of vincristine (5 μM)) came out at 103%. For the same compound, the decrease in viability in the data set with Daoy cells [6] stood at 50%. In the data set with Daoy cells [7], the “apoptotic cells seen microscopically” value is listed as “high numbers of apoptotic cells”.
